TGI and GI50 data for 8 molecules are collected here from PubChem BioAssay (NCI).

What all share (test): DTP human tumour cell line panel, 48 h
The subject of experiment [1] is BT-549 breast.
In experiment [2] the test system is HOP-62 NSCLC.
For experiment [3], the system named is K-562 leukemia.
Experiment [4] has as its system RXF 393 renal.
Experiment [5] has as its system UO-31 renal.
Experiment [6] relates to SF-539 CNS.
Experiment [7] deals with NCI/ADR-RES ovarian.
The subject of experiment [8] is SNB-19 CNS.
In experiment [9] the test system is CCRF-CEM leukemia.
Experiment [10] has as its system HS 578T breast.

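Five concentrations, 48 hours, 96-well plates. Here, GI50 denotes the concentration required for 50% inhibition of growth. TGI denotes the concentration required for complete inhibition of growth.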 A value given as a limit tells only on which side of the number the result lay.

Take `COc1ccc(OC)c(-c2cc(=O)c3c(OC)c(OC)c(OC)c(OC)c3o2)c1`: the TGI is more than 100 µM in [1]; 79.5 µM in [2]; more than 100 µM in experiment [3]; 77.7 µM in [4]; more than 100 µM in experiment [5]; more than 100 µM in [6]. In addition, the TGI was 82.8 µM in experiment [7], more than 100 µM in experiment [8], more than 100 µM in experiment [9] and more than 100 µM in [10].

Turning to `CCOC(=O)C(C)(C)C(O)C(C)C` (stereo not given), the TGI in experiment [1], in experiment [2], in [3], in [4], in [5] and in experiment [6] was more than 100 µM each time. The TGI in [7], in experiment [8], in [9] and in experiment [10] was more than 100 µM throughout.

`O=S(=O)(Nc1cc(Cl)ccc1Cl)c1ccc(-c2cnc(C3CC3)o2)cc1`: the GI50 in experiment [1] is 0.449 µM; in experiment [2], 1.64 µM; in experiment [3], 0.4 µM; in experiment [4], 1.06 µM; in experiment [5], 2.49 µM; in experiment [6] it was 1.24 µM. In addition, the GI50 is 1.22 µM in [7], 1.51 µM in experiment [8], 0.592 µM in experiment [9] and 0.701 µM in experiment [10]. For the same molecule, the total growth inhibition concentration (TGI) is 14.9 µM in experiment [1]; 27.5 µM in experiment [2]; more than 100 µM in experiment [3]; 6.65 µM in experiment [4]; 43.5 µM in [5]; 10.2 µM in experiment [6]. Besides, the TGI was 82.6 µM in experiment [7], more than 100 µM in [8], more than 100 µM in experiment [9] and 24 µM in experiment [10].

`CCN(CC)CCCC(C)N=c1cc(Nc2cc(=NC(C)CCCN(CC)CC)c3cc(OC)ccc3o2)oc2ccc(OC)cc12` (stereo not given): the GI50 in experiment [1] is 3.16 µM; in experiment [2], 0.734 µM; in experiment [3], 1.19 µM; in [4], 0.528 µM; in experiment [5], 0.874 µM; in [6], 0.803 µM. Also, the GI50 in experiment [7] is 2.09 µM; in experiment [8], 1.99 µM; in experiment [9], 2 µM; in experiment [10] it was 3.33 µM. The TGI is 9.49 µM in [1]; 2.16 µM in experiment [2]; 4.76 µM in [3]; 1.17 µM in experiment [4]; 4.9 µM in experiment [5]; 1.5 µM in [6]. Besides, the TGI in [7] is 15.3 µM; in experiment [8] it was 13 µM; in [9], 16.3 µM; in experiment [10] it was 14.8 µM.

In the case of `COc1cccc2c1c(C1=C(c3cn(C)c4ccccc34)C(=O)NC1=O)cn2C`, the GI50 was more than 25 µM in experiment [1]; more than 25 µM in experiment [2]; more than 23.9 µM in experiment [3]; more than 25 µM in [4]; more than 25 µM in experiment [5]; more than 25 µM in experiment [6]. The GI50 in experiment [7], in experiment [8], in experiment [9] and in [10] was more than 25 µM each time. Further, the TGI in experiment [1], in experiment [2], in [3], in experiment [4], in experiment [5] and in [6] was more than 25 µM each time. For the same molecule, the TGI in experiment [7], in experiment [8], in experiment [9] and in [10] was more than 25 µM throughout.

Consider `C/C(=C(\c1ccc(OCCN2CCCCCC2)cc1)c1ccc(OC(=O)Cc2ccccc2)cc1)c1ccc(Cl)cc1`, for which the GI50 in experiment [1] was 2.2 µM; in [2], 2.67 µM; in [3], 0.77 µM; in experiment [4], 2.03 µM; in experiment [5], 2.08 µM; in experiment [6], 2.36 µM. Moreover, the GI50 was 2.99 µM in experiment [7], 2.96 µM in experiment [8], 3.2 µM in experiment [9] and 2.86 µM in [10]. Besides, the TGI in [1] was 4.58 µM; in [2], 5.59 µM; in experiment [3] it was 12.1 µM; in [4], 4.45 µM; in experiment [5], 4.21 µM; in experiment [6], 4.82 µM. In addition, the TGI in experiment [7] turned out to be 6.86 µM; in experiment [8], 6.41 µM; in experiment [9] it was 10.5 µM; in [10] it was 6.52 µM.

`O=C(NCc1ccncc1)C12CC3CC(C1)CC(c1ccc(Cl)cc1)(C3)C2`: the GI50 in experiment [1] is 10.6 µM; in [2], 14 µM; in experiment [3] it was 6.93 µM; in [4], 10.7 µM; in [5] it was 10.2 µM; in experiment [6], 14.1 µM. The GI50 in [7] was 17.2 µM; in experiment [8], 13.5 µM; in experiment [9], 17.7 µM; in experiment [10] it was 12.9 µM. Moreover, the TGI was found to be 26.4 µM in experiment [1]; 27.2 µM in experiment [2]; 34.9 µM in experiment [3]; 23.6 µM in [4]; 22 µM in [5]; 28.1 µM in experiment [6]. Besides, the TGI worked out at 87.8 µM in [7], 27.8 µM in [8], 45 µM in experiment [9] and 31.7 µM in experiment [10].

For `COc1ccc(-c2cc(-c3ccc(O)cc3)nc3n[nH]c(N)c23)cc1`, the GI50 is 15.5 µM in [1]; 21.9 µM in experiment [2]; 35.3 µM in experiment [3]; 29 µM in [4]; 10.4 µM in experiment [5]; 14.7 µM in experiment [6]. The GI50 in [7] is 23.1 µM; in experiment [8] it was 33.3 µM; in experiment [9] it was 21.6 µM; in [10] it was 19.6 µM. For the same molecule, the TGI in experiment [1] was 32.6 µM; in experiment [2], 53.9 µM; in [3], more than 100 µM; in experiment [4], 92.5 µM; in experiment [5] it was 28.2 µM; in experiment [6] it was 28.6 µM. For the same molecule, the TGI was 51.9 µM in [7], more than 100 µM in experiment [8], 81.8 µM in experiment [9] and 43.3 µM in experiment [10].
